The record followed here is patent publication US20090291857A1, “METHODS TO IDENTIFY INHIBITORS OF THE UNFOLDED PROTEIN RESPONSE” (THE BOARD OF TRUSTEES OF THE LELAND STANFORD JUNIOR …, priority 2006, published 2009).

A value given as a limit tells only on which side of the number the result lay.

The test system of experiment [1] is XBP-luciferase reporter. In words: XBP-luciferase reporter assay under Tm or hypoxia. Type of experiment: cell-based, human. Here is the method: HT1080 cells stably expressing the XBP-luciferase construct were grown in 60 mm dishes to 60-70% confluency. Following hypoxia treatment, cells were washed twice with PBS, lysed in 400 μl 1× reporter lysis buffer (RLB) (Promega, Madison Wis.) for 30 min at 24° C. Lysates (100 μl) were mixed with an equal volume of luciferase substrate (Promega), and assayed using a luminometer. For 5×-UPRE-luciferase reporter assays, cells were co-transfected with the appropriate reporter plasmid and a control plasmid (pSV40-beta-gal) using Lipofectamine 2000 (Invitrogen, San Diego, Calif.). Twenty-four hours after transfection, fresh media was added, and cells were treated with Tm or shifted to hypoxia. After treatment, cells were lysed in 1× RLB and analyzed for luciferase activity as described above. Beta-galactosidase activity was determined using the beta-galactosidase enzyme assay system (Promega).
A. XBP-luciferase reporter construct. […] After 24 hours, luciferase activity was analyzed in an automated plate reader. For each cell line, values are expressed as the percent inhibition of the median for Tm/Tg-treated wells, corrected for background. […] Values are expressed as the fold increases over uninduced levels. […] Cells were harvested, lysed, and analyzed by immunoblotting with antisera specific for HIF-1α (top), XBP-1s (middle) or actin (bottom). […]

Experiment [2] has as its system XBP-luciferase reporter. In words: In vivo bioluminescence imaging of XBP-luciferase tumor xenografts. Also noted: species or system mouse. Here is the method:
HT1080 fibrosarcoma cells (2×10^6) stably expressing the XBP-luciferase reporter were implanted s.c. into severe combined immune deficient (SCID) mice. Ten minutes prior to imaging, mice were injected i.p. with D-luciferin (150 mg/kg) solubilized in PBS. Optical bioluminescence imaging was performed using the IVIS charged-coupled device camera system (Caliper Life Sciences, Hopkinton, Mass.). Mice were imaged for 1-4 minutes per acquisition scan. Signal intensities were analyzed using Living Image software (Caliper).
A. Irestatin 9389 impairs IREla activity in implanted tumor xenografts. Equal numbers (2×10^6) of XBP-luciferase or CMV-luciferase reporter cells were implanted s.c. into SCID mice. After one week, mice were treated with irestatin 9389 (50 mg/kg), followed by optical bioluminescence imaging. B. Inhibition of tumor growth by irestatin 9389. […] Tumor volumes were calculated based on caliper measurements taken every 3-5 days. Data points represent the mean volume calculated from at least 7 tumors per group, with SEM shown in one direction. […]
The increased sensitivity of irestatin-treated cells to hypoxic stress in vitro indicate that selective inhibition of IRE1α signaling could impact tumor growth. […] In contrast, XBP-1s was not detected in normal pancreas specimens (0/20), and infrequently observed in chronic pancreatitis (1/29) (FIG. 15). […]

`Cc1csc(NC(=O)CSc2nc3c(c(C(F)(F)F)c2C#N)CCC3)n1` [Compound 9389]: in experiment [1] (1 μM, hypoxia 24 or 48 hours), the “activation of the XBP-luciferase reporter under hypoxia” value is reported as “robustly inhibited this response”. In addition, in experiment [1] (Homo sapiens, Tm 24 hours, read-out: inhibition of Tm-mediated activation of the XBP-luciferase reporter), the inhibition at 1 µM is over 90%. Moreover, the “duration of robust inhibition of the XBP-luciferase reporter after injection” value in experiment [2] (SCID mice, single doses of 50-60 mg/kg) was in the range of 6 to 8 h. Moreover, the “time at which XBP-luciferase signal returned to basal levels” value in experiment [2] (after treatment) is at most 24 h.

As usually defined, the inhibition is the relative decrease from the control value, in per cent.
